Data set [1] deals with LnCaP cells. As to the kind of experiment: Microscopic evaluation of cellular uptake (live-cell imaging). The data set is classed as cell-based, Human. The following applies: TAMRA-labeled bioportide 5 µM, 1 h, 37 °C, 5% CO2, phenol red-free RPMI-1640, live-cell fluorescence imaging (EVOS M5000), 3 independent experiments. Here is the method:
(§1) To evaluate the intracellular accumulation of bioportides, PC-3 and LnCaP cells were seeded in a 24-well plate (6.00 × 10^4 and 7.50 × 10^4 cells/well, respectively) and incubated for 24 h at 37 °C under a 5% CO2 atmosphere. After washing cells with phosphate buffered saline (PBS-1×), the growth medium was exchanged for phenol red-free RPMI-1640 medium containing 5µM of TAMRA-labeled CAVPENET or CAVPENET control and incubated for 1 h. After the incubation time, the cells were washed in phenol red-free RPMI-1640 medium and observed by EVOS^TM M5000 Imaging, and photos were obtained. Live-cell imaging was used to avoid fixation artifacts. Untreated cells were included as background reading.
(§2) Figure 1 Translocation of CAVPENET control and CAVPENET bioportides into (A) PC-3 and (B) LnCaP cells. PCa cells (PC-3 and LnCaP) were incubated with TAMRA-labeled bioportides (5 µM) for 1 h at 37 °C and 5% CO2 atmosphere. Representative images from 3 independent experiments are represented. DIC: differential interference contrast. Scale bar: 150 μm.

Data set [2] deals with PC-3 cells. Described as above. The following applies: TAMRA-labeled bioportide 5 µM, 1 h, 37 °C, 5% CO2, phenol red-free RPMI-1640, live-cell fluorescence imaging (EVOS M5000), 3 independent experiments. It is filed as cell-based, Human. Here is the method:
as §1, §2

The conditions of data set [3]: phase II clinical trial; cited from earlier work. An excerpt: Despite the apparent anticancer role of CPT1, by reducing the availability of fatty acids, excess CPT1 seems to support PCa cell proliferation by an ROS-mediated stress phenotype. Moreover, a CPT1 knockout was associated with inhibition of PCa cell invasion, becoming an important therapeutic target for PCa. In this context, different compounds have been produced to target this protein [52]. […] Alternatively, ...

The test system of data set [4] is cancer cells. To be noted: cited from earlier work; for cancer cell apoptosis: cancer cells. The method, then:
Targeting protein phosphorylation has long been explored as a strategy for cancer treatment. For instance, several kinase inhibitors have been approved by the FDA as anticancer therapies. In the context of phosphatases, targeting the PP1 active site was one of the earliest proposed approaches for anticancer therapeutic development. The potential therapeutic effect of PP1 inhibitors tautomycin and calyculin A was evaluated in cancer cells.

In data set [5] the test system is several types of cells, including different tumor cell lines. To be noted: cited from earlier work.

Where a SMILES comes first, the peptide text is derived from it.

As to `CC[C@H](C)[C@H](NC(=O)[C@H](Cc1ccccc1)NC(=O)[C@H](CC(=O)O)NC(=O)[C@@H](NC(=O)[C@@H](N)C(C)C)C(C)C)C(=O)N[C@@H](CCCCN)C(=O)N[C@@H](CCC(=O)O)C(=O)N[C@@H](CC(=O)O)C(=O)N[C@@H](CCCNC(=N)N)C(=O)N[C@@H](CCC(N)=O)C(=O)N[C@H](C(=O)N[C@@H](CCCCN)C(=O)N[C@H](C(=O)N[C@@H](Cc1c[nH]c2ccccc12)C(=O)N[C@@H](Cc1ccccc1)C(=O)N[C@@H](CCC(N)=O)C(=O)N[C@@H](CC(N)=O)C(=O)N[C@@H](CCCNC(=N)N)C(=O)N[C@@H](CCCNC(=N)N)C(=O)N[C@@H](CCSC)C(=O)N[C@@H](CCCCN)C(=O)N[C@@H](Cc1c[nH]c2ccccc12)C(=O)N[C@@H](CCCCN)C(=O)N[C@@H](CCCCN)C(N)=O)[C@@H](C)CC)[C@@H](C)CC` [CAVPENET control] (H-VVDFIKEDRQIKIWFQNRRMKWKK-NH2), the cellular internalization result in data set [1] and in data set [2] was “demonstrated cellular internalization” throughout.
Regarding `CC[C@H](C)[C@H](NC(=O)[C@H](CCCCN)NC(=O)[C@@H](NC(=O)[C@@H](N)C(C)C)C(C)C)C(=O)N[C@@H](CC(=O)O)C(=O)N[C@@H](Cc1ccccc1)C(=O)N[C@@H](CCC(=O)O)C(=O)N[C@@H](CC(=O)O)C(=O)N[C@@H](CCCNC(=N)N)C(=O)N[C@@H](CCC(N)=O)C(=O)N[C@H](C(=O)N[C@@H](CCCCN)C(=O)N[C@H](C(=O)N[C@@H](Cc1c[nH]c2ccccc12)C(=O)N[C@@H](Cc1ccccc1)C(=O)N[C@@H](CCC(N)=O)C(=O)N[C@@H](CC(N)=O)C(=O)N[C@@H](CCCNC(=N)N)C(=O)N[C@@H](CCCNC(=N)N)C(=O)N[C@@H](CCSC)C(=O)N[C@@H](CCCCN)C(=O)N[C@@H](Cc1c[nH]c2ccccc12)C(=O)N[C@@H](CCCCN)C(=O)N[C@@H](CCCCN)C(N)=O)[C@@H](C)CC)[C@@H](C)CC` [CAVPENET] (H-VVKIDFEDRQIKIWFQNRRMKWKK-NH2), the cellular internalization entry in data set [1] and in data set [2] was “demonstrated cellular internalization” in each case.
On to `CCOC(=O)[C@@]1(CCCCCCOc2ccc(Cl)cc2)CO1` [Etomoxir], for which the hepatotoxicity entry in data set [3] is listed as “hepatotoxicity hampered definitive testing”.
Turning to `COC[C@@H]([C@H](O)[C@H](O)C(=O)NCC[C@H](C)c1nc(/C=C/C[C@@H]2O[C@]3(C[C@@H](O)[C@@H]2C)O[C@H]([C@H](C[C@H](O)[C@H](C)[C@H](O)[C@H](C)/C=C(C)/C(C)=C/C=C/C(C)=C\C#N)OC)[C@H](OP(=O)(O)O)C3(C)C)co1)N(C)C` [calyculin A], in data set [4], the cancer cell apoptosis entry is “effectiveness in causing cancer cell apoptosis” and the toxic effects result is listed as “significant toxic effects”.
In the case of `CO[C@H]([C@H](O)CC(=O)[C@@H](C)[C@@H](O)CC[C@@H](C)[C@@H]1O[C@]2(CC[C@@H](C)[C@H](CC[C@H](C)C(C)=O)O2)CC[C@@H]1C)[C@H](OC(=O)C[C@@H](O)C1=C(C)C(=O)OC1=O)C(C)C` [tautomycin], in data set [4], the cancer cell apoptosis entry is “effectiveness in causing cancer cell apoptosis” and the toxic effects entry was “significant toxic effects”.
On to RQIKIWFQNRRMKWKK [Penetratin], for which, in data set [5], the “toxic effects in cells” value was “absence of toxic effects”.
